From patent US20240225893A9, “SUSTAINED-RELEASE IMPLANTS FOR LOWERING INTRAOCULAR PRESSURE WITH EXTENDED DURATION OF EFFECT” (Allergan, Inc., priority 2017, published 2024)
Like-named read-outs stand apart in the source and are kept apart here.

How the values were obtained:
[1] = Systemic pharmacokinetics after topical bimatoprost (study 6177-110); assay type: in vivo; details: monkey, blood, LLOQ 0.100 ng/mL (AGN-191522)
[2] = Ocular pharmacokinetics after topical bimatoprost (study PK-98-003); assay type: in vivo; details: monkey; topical bimatoprost 0.1% QD
[3] = Systemic pharmacokinetics after intracameral Bimatoprost SR (study TX12102); assay type: in vivo; details: dogs; intracameral Bimatoprost SR 10, 15 & 20 μg; blood; LLOQ 0.025 ng/mL (AGN-192024), 0.05 ng/mL (AGN-191522)
[4] = Systemic pharmacokinetics after intracameral Bimatoprost SR Gen 1 (study TX09051); assay type: in vivo; details: monkey; intracameral 30 μg (Gen 1)
[5] = test system: glaucoma patients; assay: Phase 1/2 prospective 24-month paired-eye clinical trial of BimSR (Example 1); assay type: in vivo, human; details: month 24, topical bimatoprost solution 0.03% once a day
Procedure: A phase 1/2, prospective, 24-month, paired-eye clinical trial was conducted in 75 glaucoma patients with study eye baseline mean TOP of 25.2 (range 22-36) mmHg after washout. An intraocular implant having the composition as described in US Patent Publication No. 2015-0118279 as formulation 2, as described in TABLE 1 of the specification (6, 10, 15, or 20 μg dose strength) was administered intracamerally in the study eye; the fellow eye was treated with topical bimatoprost solution 0.03% once a day. Long-term TOP-lowering effect was assessed by TOP, time to additional TOP-lowering treatment, and percentage of patients without additional TOP-lowering treatment. Patients were permitted rescue topical medication or a single repeat treatment with BimSR. Results are presented for the 10 and 15 μg dose strengths of BimSR (n=21 for each) that are continuing in development.
Up to 4 and 6 months, 95.2% and 66.7% of patients, respectively, were controlled on the initial BimSR 10 or 15 μg treatment without need for rescue medication or implant retreatment. The median time to additional TOP-lowering treatment after BimSR administration was 38-39 weeks.
A single administration of BimSR 10 or 15 μg controlled TOP up to 6 months in 66.7% of patients and 23.8% of patients at 24 months.

[6] = Ocular pharmacokinetics after topical bimatoprost (study PK-97-032); assay type: in vivo; details: monkey; topical bimatoprost 0.1% BID
[7] = test system: prostaglandin (PG) sensitive receptors; details: cited from earlier work
[8] = human; topical bimatoprost 0.03% QD; cited from earlier work
[9] = Aqueous humor pharmacokinetics after topical bimatoprost (study PK10130); assay type: in vivo; details: dog; topical bimatoprost 0.03% QD; LLOQ 0.200 ng/mL (AGN-192024)
[10] = Systemic pharmacokinetics after topical bimatoprost (study PK-98-119); assay type: in vivo; details: human; topical bimatoprost 0.03% QD

| Systemic Concentration ([1]; topical bimatoprost 0.03% QD) | Systemic Concentration ([1]; topical bimatoprost 0.1% BID) | Aqueous Humor Concentration [2] | Tissues Concentration Cornea [2] | Tissues Concentration ICB [2] | Systemic Concentration [3] | Systemic Concentration [4] | Aqueous Humor Concentration [6] | Tissues Concentration Cornea [6] | Tissues Concentration ICB [6] | Aqueous Humor Concentration [9] | Systemic Concentration [10] | SMILES | mean (SD) TOP (intraocular pressure) ([5]; fellow eyes of BimSR 10 μg group) | mean (SD) TOP (intraocular pressure) ([5]; fellow eyes of BimSR 15 μg group) | interaction with prostaglandin (PG) sensitive receptors [7] | Aqueous Humor Concentration [8] |
| --- | --- | --- | --- | --- | --- | --- | --- | --- | --- | --- | --- | --- | --- | --- | --- | --- |
| 0.397 ng/mL | 1.92 ng/mL | 34.5 ng/mL | 558 ng/g | 797 ng/g | BLQ^a | 0.280 ng/mL | 13.0 ng/mL | 2890 ng/g | 1369 ng/g | BLQ^d | 0.0822 ng/mL | CCNC(=O)CCC/C=C\C[C@@H]1[C@@H](/C=C/[C@@H](O)CCc2ccccc2)[C@H](O)C[C@@H]1O [AGN-192024, bimatoprost] | 16.4 (2.1) mmHg | 15.4 (2.4) mmHg | no meaningful interaction | 2.37 ng/mL |
| BLQ^e | BLQ^e | – | – | – | – | 0.165 ng/mL | – | – | – | 2.0 ng/mL | 2.41 ng/mL | O=C(O)CCC/C=C\C[C@@H]1[C@@H](/C=C/[C@@H](O)CCc2ccccc2)[C@H](O)C[C@@H]1O [AGN-191522, bimatoprost acid] | – | – | – | 8.55 ng/mL |
